This note sets out measurements from patent US10822333B2, “Pyridopyrimidines derivatives compounds” (BIOLAB SANUS FARMACEUTICA LTDA, priority 2014, dated 2020).

Several values for one entry are separate records, joined by “and”; a condition that tells them apart may be missing. Equal values may be shown once.

In one data set the target is T1, Guanylate Cyclase-C (Homo sapiens, UniProt P25092).
T1 construct: host or cells: T84 cells
Nature of the data set: Stimulation of guanylate cyclase-C induced by the toxin STa in T84 cells (cGMP accumulation). Type of data set: cell-based. The following applies: for inhibition at 50 µM: T84, test compound 50 μM vs STa (1 μM) group, read-out: % of inhibition (Compound x STa); for cGMP, pmol/10 min/mg: test compound 50 μM, 10 min pre-incubation, then STa 1 μM for 10 min, T84 cells, mean ± SEM. As to the method:
Protocol for the Stimulation of Guanylate Cyclase-C Induced by the Toxin STa in T84 Cells
Cells from the T84 line (ATCC CCL-248) are subculture according to supplier's instructions. Briefly, after washing the culture flask (75 cm^2) using 3 mL of 0.25% Trypsin solution (w/v) and 0.53 mM EDTA solution to remove the traces of serum, the same volume of trypsin is added to each bottle, and cells are observed under a microscope until detachment of the cellular layer (usually 8-10 minutes).
Preparation of assay plates (12-well plates) follows after adding 8 mL of culture medium (DMEM-F12 supplemented with 10% fetal bovine serum and penicillin-streptomycin (50 IU/mL:50 μg/mL) and centrifugation of the cell homogenate at 2000 rpm for 5 minutes (at 25° C.).
With the aid of a 1 mL pipet connected to a vacuum pump, the supernatant is aspirated and the cells resuspended with culture medium (with necessary volume to maintain the ratio of 1:4, i.e. 1 culture flask originates 4 12-well plates). After homogenization of the cells, with an aid of a pipette, it is added 2 mL of the cell suspension to each well of the plate. The growth occurs in an incubator under controlled conditions (37° C., 5% CO2 atmosphere) until confluence of each well (typically 8-10 days).
Initially, the culture medium is aspirated using a 1 mL pipette connected to a vacuum pump and the cells are washed at least 3 times with 0.5 mL of a Dulbecco Phosphate Buffered Saline (DPBS; 37° C.) using a 1 mL pipette attached to one the vacuum pump. In the sequence, 0.5 mL of DPBS is added in the presence and/or absence of 1-metil-3-isobutyl xanthine (1 mM), dimethylsulfoxide (0.1% v/v) and the test compound and incubated for 10 minutes in an oven (37° C., 5% CO2 atmosphere).
After the incubation period, the cells are stimulated with STa toxin (1 μM, 5 μL) and incubated in an incubator (37° C., 5% CO2 atmosphere) for 10 minutes. After the stimulation period, the volume of the supernatant is aspirated using a 1 mL pipette connected to a vacuum pump and the cGMP is extracted by the addition of a hydrochloric acid solution 0.1 M (0.3 mL, using a pipette), pH 4, under constant stirring (speed 4) in a shaker type “rotator” (Lab-line Instruments, model number 4625), for 20 minutes. After the extraction period, the volume of each well is centrifuged (15000 rpm, 5 minutes, 25° C.) and an aliquot of the supernatant (0.3 mL) is quickly stored in a freezer at −20° C. for the subsequent quantification of the content of cGMP by the immunoassay method developed and described by HORTON et al. (1992) [Horton, J. K.; Martin, R. C.; Kalinka, S.; Cushing, A.; Kitcher, J. P.; O'Sullivan, M. J.; Baxendale, P. M., “Enzime immunoassays for the estimation of adenosine 3′,5′ cyclic monophosphate and guanosine 3′,5′ cyclic monophosphate in biological fluids”. J Immunol Methods 1992, 155:31-40].
The protein precipitate or “pellets” are digested directly by the addition of 0.5 mL of a 0.1 M sodium hydroxide solution, under constant agitation in a shaker type “rotator” (speed 7), for 30 minutes. Posteriorly, this protein fraction is used in the tests to determine proteins, employing a method developed by BRADFORD (1976). [M. M. BRADFORD, “A rapid and sensitive method for the quantitation of microgram quantities of protein utilizing the principle of protein-dye binding”. Analytical Biochemistry, 1976, 72:248-254].

Data set [1] can be described thus: Determination of absolute bioavailability in Beagle dogs (oral vs intravenous, plasma LC-MS/MS). Type of data set: in vivo. Conditions: dog, male Beagle dogs, oral powder in capsules 3 mg/kg vs intravenous bolus 1, 3 and 10 mg/kg. From the text:
Protocol for Determination of Absolute Bioavailability
The study used male Beagle dogs, aged between 2 to 4 years old, weighing between 8 to 12 kg, and kept in food control and disposal of water ad libitum during the study.
The dogs were shaving in the radial portion of the front paws, performing aseptic on site with the aid of moistened gauze with 70% alcohol.
Entered the 21G catheter (one in each paw in the intravenous administration protocol and a single paw in the oral administration protocol) in order to access the cephalic vein.
The blood samples were collected from animals depending on the established sampling times by taking 1.5 mL of blood using a 3 mL syringe. The samples were transferred to heparinized tube collection.
c) Route of Administration
The administration of the study compounds was made orally and intravenously.
The intravenous administration of the compounds was carried out in bolus, and has through one of the cephalic veins of dogs. Concentrations were administered 1 mg/kg; 3 mg/kg and 10 mg/kg in one, on different days.
The oral administration of the drug was provided as a powder in capsules at the dose of 3 mg/kg, which were all completely ingested by dogs.
For the intravenous administration, the blood samples (1.5 ml) were collected in the following predetermined time intervals: 0, 0.033, 0.083, 0.17, 0.25, 0.33, 0 5; 1; 2; 3; 4; 6; 8; 12 and 24 hours.
For the oral administration, the blood samples (1.5 ml) were collected in the following predetermined time intervals: 0, 0.33, 0.67, 1, 1.5, 2, 3, 4, and 6, 8, 12 and 24 hours.
The compounds tested are II, IV, VI, and XI; described in TABLE 1.
The heparinized tubes collections were placed in a centrifuge and were processed for 10 minutes at 2500 rpm per minute. The plasma was separated and put into other tubes. The plasma was analyzed by Liquid chromatography-tandem mass spectrometry (LC-MS/MS).

T1 sequence (P25092 24-1073): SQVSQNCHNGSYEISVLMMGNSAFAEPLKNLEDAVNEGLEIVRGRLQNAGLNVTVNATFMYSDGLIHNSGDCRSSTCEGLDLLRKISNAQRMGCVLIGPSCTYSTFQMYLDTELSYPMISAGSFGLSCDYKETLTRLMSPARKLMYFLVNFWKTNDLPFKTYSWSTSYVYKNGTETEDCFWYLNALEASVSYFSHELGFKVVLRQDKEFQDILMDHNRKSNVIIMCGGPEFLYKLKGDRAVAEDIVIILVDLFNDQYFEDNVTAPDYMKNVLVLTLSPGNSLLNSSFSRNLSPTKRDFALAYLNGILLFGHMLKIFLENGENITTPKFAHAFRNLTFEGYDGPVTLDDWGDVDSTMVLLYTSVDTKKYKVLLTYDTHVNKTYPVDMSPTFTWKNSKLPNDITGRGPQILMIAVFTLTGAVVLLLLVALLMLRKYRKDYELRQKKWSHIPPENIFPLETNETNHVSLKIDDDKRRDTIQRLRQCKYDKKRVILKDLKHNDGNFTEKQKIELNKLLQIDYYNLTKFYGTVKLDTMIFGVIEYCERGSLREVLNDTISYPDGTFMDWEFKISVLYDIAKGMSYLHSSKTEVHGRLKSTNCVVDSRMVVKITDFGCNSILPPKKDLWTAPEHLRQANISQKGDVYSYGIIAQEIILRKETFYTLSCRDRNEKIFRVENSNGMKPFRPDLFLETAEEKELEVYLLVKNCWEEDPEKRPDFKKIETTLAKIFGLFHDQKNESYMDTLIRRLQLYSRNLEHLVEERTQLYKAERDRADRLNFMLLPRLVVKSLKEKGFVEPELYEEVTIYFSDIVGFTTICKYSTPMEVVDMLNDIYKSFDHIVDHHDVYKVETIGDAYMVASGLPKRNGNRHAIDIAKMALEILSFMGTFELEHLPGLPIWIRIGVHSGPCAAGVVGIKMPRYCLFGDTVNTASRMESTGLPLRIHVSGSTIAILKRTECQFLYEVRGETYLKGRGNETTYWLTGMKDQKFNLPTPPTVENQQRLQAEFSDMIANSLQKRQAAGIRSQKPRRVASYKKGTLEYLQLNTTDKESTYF

As to `Cn1c2c(c(=O)n(C)c1=S)C(c1ccc3nsnc3c1)C1=C(N2)c2ccccc2C1=O` (stereo not shown) [Compound XII, 5-(2,1,3-benzothiadiazol-5-yl)-1,3-dimethyl-5,11-dihydro-1H-indeno-[2′,1′:5,6]pyrido[2,3-d]pyrimidine-2-thioxo-4,6-dione], the melting point came to 362 °C. Also, the inhibition at 50 µM at Guanylate Cyclase-C (cGMP accumulation in T84 cells) was roughly 64%. Also, at Guanylate Cyclase-C, the “cGMP, pmol/10 min/mg” value stood at 201.50 ± 23.51 pmol/10 min/mg.

On to `Cn1c2c(c(=O)n(C)c1=O)C(c1cccc3nsnc13)C1=C(N2)c2ccccc2C1=O` (stereo not shown) [Compound X, 5-(2,1,3-benzothiadiazol-4-yl)-1,3-dimethyl-5,11-dihydro-1H-indeno-[2′,1′:5,6]pyrido[2,3-d]pyrimidine-2,4,6-trione], for which the inhibition at 50 µM on Guanylate Cyclase-C (cGMP accumulation in T84 cells) is roughly 36%. On Guanylate Cyclase-C, the “cGMP, pmol/10 min/mg” value stood at 668.40 ± 75.46 pmol/10 min/mg.

For the compound `Cn1c2c(c(=O)n(C)c1=O)C(c1cccc3c1OCO3)C1=C(N2)c2ccccc2C1=O` (stereo not shown) [Compound VII, 5-(1,3-benzodioxol-4-yl)-1,3-dimethyl-5,11-dihydro-1H-indeno-[2′,1′:5,6]pyrido[2,3-d]pyrimidine-2,4,6-trione], the inhibition at 50 µM at Guanylate Cyclase-C (cGMP accumulation in T84 cells) was roughly 12%. In addition, on Guanylate Cyclase-C, the “cGMP, pmol/10 min/mg” value came to 297.30 ± 39.06 pmol/10 min/mg.

Regarding `Cn1c2c(c(=O)n(C)c1=O)C(c1cc(C(F)(F)F)cc(C(F)(F)F)c1)C1=C(N2)c2ccccc2C1=O` (stereo not shown) [FPIPP, reference compound], the inhibition at 50 µM on Guanylate Cyclase-C (cGMP accumulation in T84 cells) is roughly 94%. The “% of inhibition (Compound x STa)” value at Guanylate Cyclase-C (test compound 50 μM vs STa (1 μM) group, cGMP accumulation in T84 cells) is ~86% and ~83% and ~87%. The “cGMP, pmol/10 min/mg” value at Guanylate Cyclase-C was 53.53 ± 6.22 pmol/10 min/mg and 74.83 ± 13.26 pmol/10 min/mg and 56.25 ± 13.61 pmol/10 min/mg and 81.00 ± 14.38 pmol/10 min/mg.

Turning to `Cn1c2c(c(=O)n(C)c1=O)C(c1ccc3nsnc3c1)C1=C(N2)c2ccccc2C1=O` (stereo not shown) [Compound XI, 5-(2,1,3-benzothiadiazol-5-yl)-1,3-dimethyl-5,11-dihydro-1H-indeno-[2′,1′:5,6]pyrido[2,3-d]pyrimidine-2,4,6-trione], the inhibition at 50 µM at Guanylate Cyclase-C (cGMP accumulation in T84 cells) is roughly 70%. The “cGMP, pmol/10 min/mg” value on Guanylate Cyclase-C is 171.30 ± 31.68 pmol/10 min/mg. The same compound displayed a bioavailability in data set [1] of 0.35%.

With `Cn1c2c(c(=O)n(C)c1=S)C(c1csc(C(F)(F)F)c1)C1=C(N2)c2ccccc2C1=O` (stereo not shown) [Compound II], the melting point came out at 178 °C. At Guanylate Cyclase-C (cGMP accumulation in T84 cells), the inhibition at 50 µM is roughly 94%. In addition, the “cGMP, pmol/10 min/mg” value on Guanylate Cyclase-C was found to be 57.50 ± 3.16 pmol/10 min/mg. The same compound came in with a bioavailability in data set [1] of 0.16%.

Turning to `CCn1c2c(c(=O)n(C)c1=O)C(c1cc(C(F)(F)F)cc(C(F)(F)F)c1)C1=C(N2)c2ccccc2C1=O` (stereo not shown) [Compound VI, 5-(3,5-bistrifluoromethylphenyl)-1-ethyl-3-methyl-5,11-dihydro-1H-indeno-[2′,1′:5,6]pyrido[2,3-d]pyrimidine-2,4,6-trione], the melting point was found to be 166 °C. The inhibition at 50 µM at Guanylate Cyclase-C (cGMP accumulation in T84 cells) was roughly 97%. Further, on Guanylate Cyclase-C, the “cGMP, pmol/10 min/mg” value stood at 22.83 ± 3.30 pmol/10 min/mg. Further, the bioavailability in data set [1] was 0.82%.

As to `Cn1c2c(c(=O)n(C)c1=S)C(c1cc(F)cc(C(F)(F)F)c1)C1=C(N2)c2ccccc2C1=O` (stereo not shown) [Compound III, 5-(3-fluoro-5-trifluoromethylphenyl)-1,3-dimethyl-5,11-dihydro-1H-indeno-[2′,1′:5,6]pyrido[2,3-d]pyrimidine-2-thioxo-4,6-dione], the melting point was found to be 313 °C. Moreover, the inhibition at 50 µM at Guanylate Cyclase-C (cGMP accumulation in T84 cells) is roughly 64%. Besides, on Guanylate Cyclase-C, the “cGMP, pmol/10 min/mg” value is given as 201.50 ± 44.93 pmol/10 min/mg.

In turn, `Cn1c2c(c(=O)n(C)c1=S)C(c1cc(C(F)(F)F)cc(C(F)(F)F)c1)C1=C(N2)c2ccccc2C1=O` (stereo not shown) [Compound V, 5-(3,5-bistrifluoromethylphenyl)-1,3-dimethyl-5,11-dihydro-1H-indeno-[2′,1′:5,6]pyrido[2,3-d]pyrimidine-2-thioxo-4,6-dione] registered a melting point of 314 °C. Moreover, the inhibition at 50 µM on Guanylate Cyclase-C (cGMP accumulation in T84 cells) was roughly 62%.

As for `Cn1c2c(c(=O)n(C)c1=O)C(c1ccc3c(c1)OCO3)C1=C(N2)c2ccccc2C1=O` (stereo not shown) [Compound IX, 5-(1,3-benzodioxol-5-yl)-1,3-dimethyl-5,11-dihydro-1H-indeno-[2′,1′:5,6]pyrido[2,3-d]pyrimidine-2,4,6-trione], the “cGMP, pmol/10 min/mg” value on Guanylate Cyclase-C stood at 703.50 ± 43.11 pmol/10 min/mg.

In turn, `CCn1c2c(c(=O)n(C)c1=O)C(c1cc(F)cc(C(F)(F)F)c1)C1=C(N2)c2ccccc2C1=O` (stereo not shown) [Compound IV, 5-(3-fluoro-5-trifluoromethylphenyl)-1-ethyl-3-methyl-5,11-dihydro-1H-indeno-[2′,1′:5,6]pyrido[2,3-d]pyrimidine-2,4,6-trione] registered a melting point of 177 °C. In addition, on Guanylate Cyclase-C (cGMP accumulation in T84 cells), the inhibition at 50 µM was roughly 86%. For the same compound, the “cGMP, pmol/10 min/mg” value on Guanylate Cyclase-C came to 146.80 ± 22.94 pmol/10 min/mg. Also, the bioavailability in data set [1] was determined as 0.17%.

Turning to `Cn1c2c(c(=O)n(C)c1=O)C(c1csc(C(F)(F)F)c1)C1=C(N2)c2ccccc2C1=O` (stereo not shown) [Compound I], the melting point amounted to 265 °C. Moreover, the inhibition at 50 µM at Guanylate Cyclase-C (cGMP accumulation in T84 cells) is roughly 62%. The “cGMP, pmol/10 min/mg” value on Guanylate Cyclase-C is on record as 210.70 ± 6.11 pmol/10 min/mg.

In the case of `Cn1c2c(c(=O)n(C)c1=S)C(c1cccc3c1OCO3)C1=C(N2)c2ccccc2C1=O` (stereo not shown) [Compound VIII, 5-(1,3-benzodioxol-4-yl)-1,3-dimethyl-5,11-dihydro-1H-indeno-[2′,1′:5,6]pyrido[2,3-d]pyrimidine-2-thioxo-4,6-dione], the melting point is 310 °C. In addition, the inhibition at 50 µM at Guanylate Cyclase-C (cGMP accumulation in T84 cells) is roughly 66%. For the same compound, on Guanylate Cyclase-C, the “cGMP, pmol/10 min/mg” value was 350.70 ± 35.80 pmol/10 min/mg.

What is called inhibition is the change of the read-out against control, counted positive when it falls. The term melting point denotes the temperature of the solid-liquid transition. As a reminder, the bioavailability is the share of a dose that reaches the circulation, judged against a reference dose that is usually intravenous. Higher therefore signals good availability.
